In patent US6680293B2, “Use of isolated domains of type IV collagen to modify cell and tissue interactions” (Kansas University Medical Center, priority 1994, dated 2004):

Assays:
hydra cells = experiment: Inhibition of DNA synthesis in hydra cell aggregates; type: cell-based, Hydra vulgarie; conditions: 10 μM, Time 0 to 96 hr
Hydra cell aggregates = experiment: Hydra cell aggregate development / morphogenesis blocking; type: cell-based, Hydra vulgarie; conditions: 10 μM, Time 0 to 96 hr
Method: All experiments utilized Hydra vulgarie (previously named Hydra attenuata). Animals were cultured as described previously (Sarras et al., 1991a, supra) and were not fed for 24 hr prior to use.
Hydra cell aggregates were prepared according to Gierer et al., (1972, supra) with modification described by Sans et al., (1993, supra). They were incubated either in microtiter plates (NUNS, Denmark) with one aggregate/well/10 μl incubation solution or in 96-well plates (Falcon) with three to five aggregates/well/50 μl incubation solution. Antibiotics were used throughout all steps of aggregate preparation to assure that the aggregates used in this study were free of any symbionic bacterial populations (Sarra et al., 1993, supra). […] By 24 hr of cell pellet formation, hydra cell aggregates develop septate junctions between epithelial cells (Wood et at., 1980. J. Ultrastruc. Res. 70:104-117). These junctions prevent the introduction of macromolecules from medium into mesoglea. […]
Criteria for morphogenesis was as follows. […] The percentage of aggregates-with head and tentacle structures at 96 hr of development was calculated and data for each group from different experiments were pooled and plotted. […] Using an ANOVA statistical test, a P value <0.05 was taken as the level of significant difference in all groups analyzed. […]

NC(=O)NO [HU, hydroxyurea]
DNA synthesis (hydra cells): completely blocked | morphogenesis of hydra cell aggregates (Hydra cell aggregates): did not inhibit
